According to EP0646579A1, “Ketonic indane derivatives and heterocyclic analysis and their use in therapy” (LABORATOIRE INNOTHERA Société Anonyme, priority 1993, dated 1995):
pEC50: −log10 of the molar value.

Legend:
[1] = test system: veines saphènes de lapin; assay: Contraction of isolated rabbit saphenous veins produced by KCl (40 mM); type: cell-based; conditions: for augmentation des contractions des veines saphènes de lapin produites par le KCl: KCl 40 mM, compounds 10 nM à 30 mM; for pEC50: increase of KCl (40 mM) contraction of rabbit saphenous veins, read-out: DE₅₀
Excerpt: L'effet contractile est mesuré in vitro : • par la force de contraction développée par des anneaux vasculaires quiescents ou stimulés (soit électriquement soit par des agents physiologiques) et maintenus dans des conditions isométriques, • par la pression développée par des réseaux vasculaires perfusés à débit constant.
Les composés de formule (I) et leurs sels éventuels augmentent la contraction des veines saphènes animales produite par la noradrénaline et la dépolarisation (solution hyperpotassique) sans affecter, dans la majorité des cas, les réponses contractiles artérielles. A titre illustratif, les composés des exemples 1, 2, 3, 5 (10 nM à 30 mM) augmentent de plus de 40 % (DE₅₀ + 0,3 microM) les contractions des veines saphènes de lapin produites par le KCl (40 mM).

[2] = test system: rat; assay: Carrageenan-induced pleurisy in the rat; type: in vivo; conditions: 5 mg/kg i.p. twice; for migration leucocytaire dans la cavité pleurale: 6 hours after carrageenan injection; for oedème: 6 hours after carrageenan injection into the pleural cavity
Experimental: L'activité antiinflammatoire est démontrée par la mesure de l'inhibition de l'oedème et de la migration leucocytaire après induction d'une pleurésie chez le rat par injection de carragénine dans la cavité pleurale (Almeida et col., J. Pharmacol. Exp. Therap., 1980, 214 : 74).
Le composé des exemples 31, 3, 5 administrés deux fois en i.p. à la dose de 5 mg/kg inhibent l'oedème et la migration leucocytaire dans la cavité pleurale, 6 heures après injection de carragénine dans le modèle de la pleurésie chez le rat.

[3] = test system: hyperperméabilité vasculaire induite par le zymosan; assay: Vascular hyperpermeability induced by zymosan, in vivo; conditions: oral administration of 1-20 mg/kg
Excerpt: La perméabilité vasculaire est étudiée in vivo et in vitro par la mesure de l'extravasation d'albumine ou de colorant liant l'albumine (Bleu Evans). In vivo, l'hyperperméabilité est induite par l'injection d'une solution d'histamine, de bradykinine ou de zymosan. Les modèles in vitro permettent de réaliser des hyperpressions (sur un territoire vasculaire isolé) et/ou des réactions vasculaires inflammatoires.
A titre illustratif, les composés des exemples 1, 2, 3, 5 inhibent l'hyperperméabilité vasculaire induite par le zymosan après administration orale de 1-20 mg/kg.

[4] = Free radical scavenging, DPPH model; type: biochemical; conditions: DPPH as stable free radical, in vitro
Excerpt: L'effet "piégeur de radicaux libres" global est étudié in vitro par un modèle utilisant le 1,1-diphényl-2-picrylhydrazyl (DPPH) comme radical libre stable, méthode dérivée de celle décrite par Lamaison et col., Plantes Médic. et Phytothérapie, XXII, 1988, 231-234.

SMILES: O=c1c(=NNc2nc3ccccc3[nH]2)c(=O)c2ccccc12 [exemple 3, 2-(Benzimidazol-2-yl-hydrazono)-2.3-dihydro-1.3-dioxo-1H-indene]
- augmentation des contractions des veines saphènes de lapin produites par le KCl [1]: > 40%
- pEC50 [1]: ~6.52
- migration leucocytaire dans la cavité pleurale [2]: inhibent
- oedème [2]: inhibent
- hyperperméabilité vasculaire induite par le zymosan [3]: inhibent

SMILES: O=C(NN=c1c(=O)c2cccnc2c1=O)Nc1ccccc1 [exemple 6, 5.7-Dioxo-6-(phenylaminocarbonylhydrazono)cyclopenta[b]pyridine]
- effet antiradicalaire [4]: effet antiradicalaire

SMILES: O=c1c(=NNc2nc3ccccc3o2)c(=O)c2ccccc12 [exemple 2, 2-(Benzoxazol-2-yl-hydrazono)-2.3-dihydro-1.3-dioxo-1H-indene]
- augmentation des contractions des veines saphènes de lapin produites par le KCl [1]: > 40%
- pEC50 [1]: ~6.52
- hyperperméabilité vasculaire induite par le zymosan [3]: inhibent
- effet antiradicalaire [4]: effet antiradicalaire

SMILES: O=c1c(=NNc2nc3ccccc3s2)c(=O)c2ccccc12 [exemple 1, 2-(Benzothiazol-2-yl-hydrazono)-2.3-dihydro-1.3-dioxo-1H-indene]
- augmentation des contractions des veines saphènes de lapin produites par le KCl [1]: > 40%
- pEC50 [1]: ~6.52
- hyperperméabilité vasculaire induite par le zymosan [3]: inhibent

SMILES: O=c1c(=NNc2nc3cnccc3[nH]2)c(=O)c2ccccc12 [exemple 5, 2-(5-Azabenzimidazol-2-yl-hydrazono)-2.3-dihydro-1.3-dioxo-1H-indene]
- augmentation des contractions des veines saphènes de lapin produites par le KCl [1]: > 40%
- pEC50 [1]: ~6.52
- migration leucocytaire dans la cavité pleurale [2]: inhibent
- oedème [2]: inhibent
- hyperperméabilité vasculaire induite par le zymosan [3]: inhibent
